From US20250152601A1, “Compositions and Methods for the Treatment of Sexual Dysfunctions” (The Jonathan Hurt Living Trust, priority 2022, published 2025)
Where a name gives a salt, the structure may show the parent alone. Read-outs that look alike come from different tables or passages of the source.

Key:
[1] = in ester or salt form, cited from earlier work
ejaculation/orgasm = test: Ejaculation scores D (strength of the muscle contractions during ejaculation) and DE (ease to achieve ejaculation), incl. FE/FO; format: in vivo, human; details: for effect on D/DE scores, stated in words: Examples with the positive cholinergic; for time after ingestion at which the increase in DE score may peak: before 60 minutes; for average D score / average DE score: when not combined with another listed positive cholinergic
Experimental: Variations in TSF and other sexual responses were noticed after ingesting a treatment substance, and additional scores to describe these responses were recorded in some examples. In some examples the C score for TSF was localized only to the head (“glands”) of the penis when one or more C score measurements were taken prior to attempted or achieved ejaculation/orgasm. […] In some examples after ingesting a treatment substance, the speed of B score decrease from the first muscle contraction to the last muscle contraction of ejaculation was recorded as the “BS” score using terms such as “IS” for instantaneous loss of TSF where a B score of 0.0 occurred at or immediately after the first muscle contraction, “FT” for a fast loss of TSF, and “SL” for a slow loss of TSF. In some examples the minimum B score measured at or near the last muscle contraction was recorded as the “BM” score using the same scoring parameters as for the B score. […] In some examples the ease to achieve ejaculation was recorded as the “DE” score, with a score of 1.0 being ejaculation achieved with some difficulty, 2.0 being a typical/normal ease of ejaculation, and a 3.0 being of the ease of ejaculation was promoted. […] When a score (e.g., C, CT, A, B, BM, BS, D, DE) was not recorded or not applicable then “N/A” is listed for that score and that score was not used (no numeric score) for mathematical evaluations in such an occurrence.
Dietary vitamins and nutritional supplements were ingested about 7:00 AM to about 10:30 AM with coffee, and coffee consumption ended by about 12:00 PM or earlier. No food was ingested during the day before measurements as only one meal a day is typically eaten in the evening.
Measurements were made in the morning from about 7:30 AM until about 11:30 AM.
Dietary vitamins and nutritional supplements were ingested about 7:00 AM to about 10:30 AM with coffee, and coffee consumption ended by about 12:00 PM or earlier.
No food, dietary vitamins or nutritional supplements were ingested the day of the measurements until after the measurements were taken.

[2] = test system: tactile sexual function (TSF); test: Self-measured tactile sexual function (TSF) scores C, CT, A, B, BM, BS after ingesting treatment substance(s); details: for effect on TSF, stated in words: inventor; for C, A and B scores when combined with Val and NAC: at 60 minutes; for TSF when both paroxetine and finasteride were ingested: during use of both drugs;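 as to all read-outs here: Self-rated by the single male inventor (about 65 kg) after oral intake, capsules unless noted, on the TSF scale, each one-unit score rise means roughly double the sensation intensity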
Excerpt: Some treatment substances were in liquid form when orally ingested. For the Working Examples herein all treatment substances were in capsule form unless otherwise noted in the Tables herein. […] It is contemplated that the mg per kilogram dose of treatment substances and/or the time from ingesting one or more treatment substances may vary from person to person for optimum improvement in treating a sexual dysfunction (e.g., an SRSS including reduced TSF or absent TSF). In some instances, it is contemplated that ingesting one treatment substance may be done at a different time than ingesting another treatment substance to optimize the effect in treating a sexual dysfunction.
For a male, the A score is the highest intensity of TSF just before the first muscle contraction of ejaculation, and the B score is the highest intensity of TSF just after the first muscle contraction of ejaculation.

[3] = Non-sexual side effects associated with ingesting treatment substances; details: for non-sexual side effect / adverse event: after ingesting the treatment substance
mGlu5-R = mGlu5-R (Homo sapiens, UniProt P41594); details: Glu released by Xc- after exchange for Cys2; cited from earlier work
mGlu(2/3)-R = details: rats, striatum; cited from earlier work
[4] = in vivo; cited from earlier work
[5] = test system: tactile sexual function (TSF); test: C score at varying time points after ingestion (duration of effect; rise, peak, fall pattern or decline pattern); format: in vivo, human; details: C scores at 20 to 60 minutes
Excerpt: Table 42 records the increases/decreases in C scores over time as a measure of the duration of the effect of ingesting a treatment substance on TSF, for some working examples listed in previous tables. These working examples measured TSF for C scores at varying time points after the first ingestion of a treatment substance and before the measurement of the B score. Negative time scores indicate that the C score measurement occurred prior to ingesting a treatment substance, such as at example T37:82 the […] time is listed as −20 as the measurement for the C score at the C1 time was made 20 minutes before ingesting the treatment substance. In some examples additional rows were used to record C scores (e.g., examples T37:82 and T40:1). The duration of the effect of treatment substance(s) on the C score varied, with some reaching a peak C score before the B score measurement (e.g., see example T37:43), and other still increasing in C score to the B score measurement (e.g., see example T41:8).
Early C score measurements, when available, are shown for 20, 30, 40, and/or 50 minutes. […] Individual combinations of Val and NAC and another treatment substance may vary from the average's rise, peak, fall pattern (e.g., T41:120). […]

sexual function = test: Additional sexual effects after ingesting treatment substances (C score different, urination sensitivity, ease to ejaculate); format: in vivo, human; details: 3000 mg/day, after about a week
[6] = Table 47A, dose in mg per example: Phenibut 450, Homotaurine 50, 150, 200, 250
[7] = Table 47A, dose in mg per example: Phenibut 450, Homotaurine 50, 150, 200, 250, beverage and time as in Tables 37, 38, 39
[8] = Table 39C, ingested at times other than 60 minutes before measurements
[9] = Table 39B, ingested at times other than 60 minutes before measurements, various beverages
[10] = prolonged daily ingestion (D-Asp 3000 mg/day about a week; bupropion per prescription, following months)
[11] = Table 47A, dose in mg per example: Phenibut 450, Homotaurine 50, 150, 200, 250, listed as T38:18
[12] = after the first day of ingesting bupropion
[13] = Table 47A, dose in mg per example: Phenibut 450, Homotaurine 50, 150, 200, 250, listed as T38:5

mGlu5-R, sequence (P41594 21-1212): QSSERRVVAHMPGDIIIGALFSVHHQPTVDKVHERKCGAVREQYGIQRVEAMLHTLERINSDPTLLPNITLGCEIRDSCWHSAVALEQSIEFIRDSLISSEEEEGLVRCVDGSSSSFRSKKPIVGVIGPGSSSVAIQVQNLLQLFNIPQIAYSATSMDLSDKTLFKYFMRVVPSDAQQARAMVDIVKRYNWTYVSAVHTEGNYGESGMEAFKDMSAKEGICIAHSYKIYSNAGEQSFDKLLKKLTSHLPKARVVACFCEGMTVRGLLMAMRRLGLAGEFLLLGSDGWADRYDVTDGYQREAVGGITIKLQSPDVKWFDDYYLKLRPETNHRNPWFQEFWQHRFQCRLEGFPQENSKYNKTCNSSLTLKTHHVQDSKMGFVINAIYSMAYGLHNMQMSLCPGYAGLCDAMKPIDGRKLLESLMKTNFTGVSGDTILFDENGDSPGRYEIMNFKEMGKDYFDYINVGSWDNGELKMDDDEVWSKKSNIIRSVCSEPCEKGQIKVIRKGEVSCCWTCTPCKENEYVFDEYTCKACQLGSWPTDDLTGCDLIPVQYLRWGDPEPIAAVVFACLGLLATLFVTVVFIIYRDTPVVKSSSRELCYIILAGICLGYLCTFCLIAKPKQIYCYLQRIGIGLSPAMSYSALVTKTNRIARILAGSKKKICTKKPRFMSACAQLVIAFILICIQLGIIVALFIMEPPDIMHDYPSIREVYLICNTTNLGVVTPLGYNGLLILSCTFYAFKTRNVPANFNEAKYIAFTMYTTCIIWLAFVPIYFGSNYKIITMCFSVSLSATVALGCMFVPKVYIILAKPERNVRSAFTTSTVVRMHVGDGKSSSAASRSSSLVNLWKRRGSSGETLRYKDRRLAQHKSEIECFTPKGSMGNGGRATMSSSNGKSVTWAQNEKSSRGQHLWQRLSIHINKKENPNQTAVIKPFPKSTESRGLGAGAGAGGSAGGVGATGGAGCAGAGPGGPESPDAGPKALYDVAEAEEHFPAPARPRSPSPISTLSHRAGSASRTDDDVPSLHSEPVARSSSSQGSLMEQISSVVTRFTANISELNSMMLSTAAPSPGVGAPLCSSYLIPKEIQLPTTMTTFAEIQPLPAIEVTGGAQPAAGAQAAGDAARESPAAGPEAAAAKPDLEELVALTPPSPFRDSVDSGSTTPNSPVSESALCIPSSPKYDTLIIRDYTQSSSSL

## C[C@@H](O)CC(=O)O [D-Beta-Hydroxybutyrate]
[1]; 12 grams
  blood ketone bodies such as D-Beta-Hydroxybutyrate: 1.0 mM
[1]; 24 grams
  blood ketone bodies such as D-Beta-Hydroxybutyrate: 2.8 mM

## C/C=C1\[C@H]2C=C(C)C[C@]1(N)c1ccc(=O)[nH]c1C2 [Huperzine A]
ejaculation/orgasm
  effect on D/DE scores, stated in words: also had Examples of improved D/DE scores
  time after ingestion at which the increase in DE score may peak: about 40 minutes
  average D score: 3
  average DE score: 1.9

## CC(=O)N[C@@H](CCC(N)=O)C(=O)O [AcetylGln, N-Acetyl L-Glutamine]
[2]
  effect on TSF, stated in words: relatively weak effect

## NCC(CC(=O)O)c1ccccc1 (centres unmarked) [phenibut, Phenibut HCl]
[2]
  effect on TSF, stated in words: weaker effect on improving A/B TSF scores

## NCCCS(=O)(=O)O [T37:56, Homotaurine]
[2]; [6]
  A score: 7.5
  B score: 7.5
[2]; [7]
  C score: 1.2

## CN[C@H](CC(=O)O)C(=O)O [NMDA, N-Methyl-D-Aspartic Acid, reference compound]
[2]
  effect on TSF, stated in words: negative effect on TSF scores

## CCNC(=O)CC[C@H](N)C(=O)O [theanine, Theanine]
ejaculation/orgasm; of 14 Examples having theanine as a treatment substance, 12 failures in all Examples
  number of Examples with failure to ejaculate: 3

## CC(=O)N[C@@H](CS)C(=O)O [NAC, N-Acetyl-Cysteine, reference compound]
[2]
  effect on TSF, stated in words: no positive effect was noticed on TSF

## CC(C)[C@H](N)C(=O)O [Val, Valine]
[2]
  effect on TSF, stated in words: stronger improvement in TSF than either Leu or Ile

## NCCCS(=O)(=O)O [T37:57, Homotaurine]
[2]; [6]
  A score: 9.2
  B score: 9.2
[2]; [7]
  C score: 1.2

## NCC(CC(=O)O)c1ccccc1 (centres unmarked) [T39:13, Phenibut HCl]
ejaculation/orgasm; [8]
  D score (strength of the muscle contractions during ejaculation): 4.0
  DE score (ease to achieve ejaculation): 2.0
[2]; [9]
  A score: 6.5
  B score: 6.5
  C score: 1.5
[2]; [8]
  A score: 6.5
  B score: 6.5
  C score: 1.5
[2]; [6]
  A score: 6.5
  B score: 6.5
[2]; [7]
  C score: 1.5
[3]; non-sexual side effect after ingesting treatment substance(s)
  Side Effect: Felt not normal
[3]; time after ingesting treatment substance(s), sometimes approximated
  Time of Side Effect: 20 to 120 min

## N[C@@H](CCC(=O)O)C(=O)O [Glu, Glutamic Acid]
mGlu5-R
  Glu level at which the extrasynaptic mGlu5-R becomes activated: 500 µM
mGlu(2/3)-R
  Glu concentration that activated the mGlu(2/3)-R: 0.5 µM

## NCCCC(=O)O [GABA, gamma-aminobutyric acid]
[2]
  effect on TSF, stated in words: mild improvement in TSF relative to Val

## COc1ccc(-c2oc3c(CC=C(C)C)c(O[C@@H]4O[C@H](CO)[C@@H](O)[C@H](O)[C@H]4O)cc(O)c3c(=O)c2O[C@@H]2O[C@@H](C)[C@H](O)[C@@H](O)[C@H]2O)cc1 [icariin, Icariin]
[2]
  C, A and B scores when combined with Val and NAC: C score below a preferred C score and A and B scores that matched the lowest A and B scores of Val and NAC alone

## Cn1c(=O)c2c(ncn2C)n(C)c1=O [caffeine, Caffeine]
[4]
  average plasma half-life: 5 h

## O=C1c2c(O)cc(O)cc2O[C@H](c2cc(O)c(O)c(O)c2)[C@H]1O [dihydromyricetin, Dihydromyricetin]
[5]
  C score pattern over time when ingested alone: decline pattern
[2]
  C, A and B scores when combined with Val and NAC: C, A and B scores less than the lowest C, A and B scores of Val and NAC alone
  effect on TSF, stated in words: reduced positive TSF scores

## N[C@H](CC(=O)O)C(=O)O [D-Asp, D-Aspartic Acid]
Sexual function
  physical arousal (erections): extremely promoted
ejaculation/orgasm; [10]
  D score: 3.0
  DE score: 2.0
[2]; [10]
  A score: 0
  B score: 0
  BM score: 0
  C score: 0
[3]
  non-sexual side effect / adverse event: a small bump from a varicose vein developed on the penis

## CC(C)(C)NC(=O)[C@H]1CC[C@H]2[C@@H]3CC[C@H]4NC(=O)C=C[C@]4(C)[C@H]3CC[C@]12C [Finasteride, reference compound]
[2]; oral, per prescription
  TSF when both paroxetine and finasteride were ingested: complete lack of TSF
[2]; oral, per prescription, inventor before SRSS
  effect on TSF while ingesting the drug: moderately reduced TSF

## COc1ccc([C@@H]2CC(=O)c3c(O)cc(O[C@@H]4O[C@H](CO[C@@H]5O[C@@H](C)[C@H](O)[C@@H](O)[C@H]5O)[C@@H](O)[C@H](O)[C@H]4O)cc3O2)cc1O [hesperidin, Hesperidin]
[5]
  C score pattern over time when combined with Val and NAC: rise, peak, fall pattern of C scores and not a high C, A, and/or B scores

## Fc1ccc([C@@H]2CCNC[C@H]2COc2ccc3c(c2)OCO3)cc1 [paroxetine, reference compound]
[2]; finasteride continued
  TSF after discontinuing paroxetine use: absence of TSF continued much to most of the time
[2]; oral, per prescription
  TSF when both paroxetine and finasteride were ingested: complete lack of TSF

## COc1ccc2c3c1O[C@H]1C[C@@H](O)C=C[C@@]31CCN(C)C2 [Galantamine HBr, Galantamine Hydrobromide, reference compound]
ejaculation/orgasm
  effect on D/DE scores, stated in words: generally had improved D/DE scores
  time after ingestion at which the increase in DE score may peak: about 40 minutes
  average D score: about 3.6
  average DE score: 2.4

## NCCCS(=O)(=O)O [Example T38: 18, Homotaurine]
[2]; Table 47A, dose in mg per example: Phenibut 450, Homotaurine 50, 150, 200, 250, beverage and time as in Tables 37, 38, 39, listed as T38:18
  C score: 1.0
[2]; [11]
  A score: 9.2
  B score: 9.2

## CC(NC(C)(C)C)C(=O)c1cccc(Cl)c1 (centres unmarked) [Bupropion, reference compound]
ejaculation/orgasm; [12]
  D score: 3.0
  DE score: 2.0
ejaculation/orgasm; [10]
  D score: 3.0
  DE score: 2.0
[2]; [12]
  A score: about 4
  B score: about 4
  C score: less than 1
[2]; [10]
  A score: 0
  B score: 0
  BM score: 0
  C score: 0
[3]
  non-sexual side effect / adverse event: feeling odd/under the influence of a drug

## NCCCS(=O)(=O)O [Example T38: 5, Homotaurine]
[2]; Table 47A, dose in mg per example: Phenibut 450, Homotaurine 50, 150, 200, 250, beverage and time as in Tables 37, 38, 39, listed as T38:5
  C score: 1.8
[2]; [13]
  A score: 9.5
  B score: 9.5
